Literature values, collected in patent US7294691B1, “Soluble secreted α2δ-2calcium channel subunit polypeptide” (Warner Lambert Company, priority 2000, dated 2007).

Test system: [^3H]gabapentin binding site
Settings: saturation binding in the presence of L-leucine; reduces [^3H]gabapentin binding affinity

interaction with the [^3H]gabapentin binding site: competitive interaction
SMILES: CC(C)C[C@H](N)C(=O)O [L-Leucine]
